Assay results: PubChem BioAssay AID1918934 (Molecular Pharmacology Branch, DTP, NCI, 2023)

System: 292921-168-R-J2-PDC complex spheroid viability
Test: Anticancer human tumor 292921-168-R-J2-PDC patient-derived pancreatic carcinoma cell line growth inhibition
Settings: for IC50: curve of first compound; for viability, T/C: stronger effect = lower value; active means viability on the fitted dose curve at most 10% of control; inactive means the rest
Description: Multicellular complex tumor spheroid response to LSD1 Inhibitor Iadademstat in combination with a variety of drugs and investigational agents in selected tumor cell lines
The current study was undertaken to assess response to LSD1 inhibitors in combination with standard-of-care drugs and investigational agents in solid tumor complex spheroid models as well as in the K-562 leukemia. Complex spheroids include a stromal component modeled by human endothelial cells (HUVEC) and fibroblasts modeled by human mesenchymal stem cells (MSCs). The concentration ranges selected for each drug and investigational agent were based upon clinically achievable concentrations if the clinical Cmax of the agent was known.
Compounds. The drugs and investigational agents used in this study are listed on Table 1. All of the agents used, including staurosporine (NSC755774) and gemcitabine (NSC613327), were obtained from the Developmental Therapeutics Program, NCI. FDA-approved anticancer drugs are available from the NCI at http://dtp.nci.nih.gov/branches/dscb/oncology_drugset_explanation.html. Drugs and investigational agents were >95% pure by proton nuclear magnetic resonance (NMR) and liquid chromatography/mass spectrometry (LC/MS). Stock solutions were prepared at 400x in DMSO, stored at -70 degrees C, and diluted in fresh medium prior to their use. The final concentration of DMSO in cell culture wells never exceeded 0.25% (v/v). The FDA-approved anticancer drug set is available from the Developmental Therapeutics Program at https://dtp.cancer.gov/organization/dscb/obtaining/available_plates.htm. All drugs and investigational agents were tested over a range starting from a high concentration at or near the clinical Cmax and decreasing in half-log increments. If the clinical Cmax for an agent had not been determined, the highest concentration tested was 10 microM.
Cell Lines. The patient-derived cancer cell (PDC) lines: 292921-168-R-J2-PDC, K24384-001-R-PDC, and 521955-158-R2-J5-PDC pancreatic carcinomas, 556581-035-R-J1 ovarian carcinoma, 324938-238-R-J1-PDC, 855422-203-R-J1-PDC and 883617-216-R-J1-PDC urothelial bladder carcinomas, 743489-274-T-PDC renal cell carcinoma, 138582-R-J1 Merkel cell tumor, K60290-347-R-J1 and K57222-313-R-J1-PDC glioblastomas, 653999-131-R-J2-PDC, LG0703-F948-PDC, and 349418-098-R-PDC non-small cell lung carcinomas, 885512-296-R-J2-PDC, 171881-019-R-J1-PDC breast carcinomas and 186277-243-T-J2-PDC and 233499-124-R-J2-PDC colon carcinomas were obtained from the NCI Patient-Derived Models Repository (PDMR, https://pdmr.cancer.gov). The established cell lines NCI/ADR-RES (RRID:CVCL_14520 and OVCAR-5 (RRID:CVCL_1628) ovarian carcinomas, 786-O (RRID:CVCL_1051) and A498 (RRID:CVCL_A498) renal cell carcinoma, NCI-H211 (ATCC, cat. CRL-5824; RRID:CVCL_1529), NCI-H196 (ATCC, cat. CRL-5823, RRID:CVCL_1509), SW 1271 (ATCC, cat. CRL-2177, RRID:CVCL_1716) and NCI-H1876 (ATCC, cat. CRL-5902, RRID:CVCL_1503) small cell lung carcinomas, MDA-MB-231 (RRID:CVCL_0062) and MDA-MB-468 (RRID:CVCL_0419)breast carcinomas (10-12). Pooled donor human umbilical vein endothelial cells (HUVEC, Lonza, cat. CC-2519) and human mesenchymal stem cells (hMSC, Lonza, cat. PT-2501) were purchased from Lonza (Walkersville, MD).
Cell Culture. All cells were maintained in an incubator at 37 degrees C and 5% CO2 with 95% humidity. The PDC lines were cultured according to standard operating procedures established by the NCI PDMR (https://pdmr.cancer.gov). Briefly all PDCs were thawed and cultured in Matrigel-coated flasks prepared with a working solution of 1X Ham's F-12 nutrient mix, without supplementation (Invitrogen, Waltham, MA, cat. 11765054), 100 U/mL penicillin-streptomycin (Invitrogen, cat. 15140122), and 2.5% Matrigel (Corning Inc., Corning, NY, cat. 354248) for the first three passages. […]

[1] = second compound 0.1 µM, first compound 0.0316 µM
[2] = second compound 0.1 µM, first compound 0.1 µM
[3] = second compound 0.316 µM, first compound 0.0316 µM
[4] = second compound 0.316 µM, first compound 0.1 µM
[5] = second compound 1 µM, first compound 0.0316 µM
[6] = second compound 1 µM, first compound 0.1 µM
[7] = second compound 3.16 µM, first compound 0.0316 µM
[8] = second compound 3.16 µM, first compound 0.1 µM
[9] = second compound 10 µM, first compound 0.0316 µM
[10] = second compound 10 µM, first compound 0.1 µM
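Further: seven day compound exposure before luminescent viability read.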

O=C(C=Cc1cccc(S(=O)(=O)Nc2ccccc2)c1)NO + NC1CC1c1ccc(-c2cccc(O)c2)cc1
< 9.49 nM: IC50 (second compound 0.316 µM) | IC50 (second compound 10 µM)
active: viability, T/C (second compound 0.1 µM, first compound 0.949 µM) 1.42% | viability, T/C (second compound 0.1 µM, first compound 3 µM) 0.23% | viability, T/C (second compound 0.316 µM, first compound 0.949 µM) 1.57% | viability, T/C (second compound 0.316 µM, first compound 3 µM) 0.46% | viability, T/C (second compound 1 µM, first compound 0.949 µM) 0.74% | viability, T/C (second compound 1 µM, first compound 3 µM) 0.53% | viability, T/C (second compound 3.16 µM, first compound 0.949 µM) 0.66% | viability, T/C (second compound 3.16 µM, first compound 3 µM) 0.11% | viability, T/C (second compound 10 µM, first compound 0.949 µM) 0.41% | viability, T/C (second compound 10 µM, first compound 3 µM) 0.15%
inactive: viability, T/C (second compound 0.1 µM, first compound 0.00949 µM) 59.3% | viability, T/C (second compound 0.1 µM, first compound 0.03 µM) 48.9% | viability, T/C (second compound 0.1 µM, first compound 0.0949 µM) 34.9% | viability, T/C (second compound 0.1 µM, first compound 0.3 µM) 25.2% | viability, T/C (second compound 0.316 µM, first compound 0.00949 µM) 52.5% | viability, T/C (second compound 0.316 µM, first compound 0.03 µM) 42.6% | viability, T/C (second compound 0.316 µM, first compound 0.0949 µM) 38.6% | viability, T/C (second compound 0.316 µM, first compound 0.3 µM) 24.9% | viability, T/C (second compound 1 µM, first compound 0.00949 µM) 54.4% | viability, T/C (second compound 1 µM, first compound 0.03 µM) 43.4% | viability, T/C (second compound 1 µM, first compound 0.0949 µM) 40.3% | viability, T/C (second compound 1 µM, first compound 0.3 µM) 22.8% | viability, T/C (second compound 3.16 µM, first compound 0.00949 µM) 52.1% | viability, T/C (second compound 3.16 µM, first compound 0.03 µM) 45.7% | viability, T/C (second compound 3.16 µM, first compound 0.0949 µM) 35.7% | viability, T/C (second compound 3.16 µM, first compound 0.3 µM) 22.8% | viability, T/C (second compound 10 µM, first compound 0.00949 µM) 45.2% | viability, T/C (second compound 10 µM, first compound 0.03 µM) 36.9% | viability, T/C (second compound 10 µM, first compound 0.0949 µM) 31.8% | viability, T/C (second compound 10 µM, first compound 0.3 µM) 18.7%
11.9 nM: IC50 (second compound 3.16 µM)
11.7 nM: IC50 (second compound 1 µM)
29.8 nM: IC50 (second compound 0.1 µM)

COc1ccc([C@@H](O)c2cc(-c3ncnc4cc(N5CCOCC5)ccc34)c(F)cc2Cl)nn1 + NC1CCC(NC2CC2c2ccccc2)CC1
inactive: viability, T/C [1] 61.8% | viability, T/C [2] 61.3% | viability, T/C (second compound 0.1 µM, first compound 0.316 µM) 42.7% | viability, T/C (second compound 0.1 µM, first compound 1 µM) 30.4% | viability, T/C (second compound 0.1 µM, first compound 3.16 µM) 19.9% | viability, T/C (second compound 0.1 µM, first compound 10 µM) 11.7% | viability, T/C [3] 61.1% | viability, T/C [4] 57.7% | viability, T/C (second compound 0.316 µM, first compound 0.316 µM) 44.4% | viability, T/C (second compound 0.316 µM, first compound 1 µM) 26.2% | viability, T/C (second compound 0.316 µM, first compound 3.16 µM) 17.1% | viability, T/C (second compound 0.316 µM, first compound 10 µM) 11.8% | viability, T/C [5] 59.9% | viability, T/C [6] 50.4% | viability, T/C (second compound 1 µM, first compound 0.316 µM) 38.1% | viability, T/C (second compound 1 µM, first compound 1 µM) 24.9% | viability, T/C (second compound 1 µM, first compound 3.16 µM) 18.4% | viability, T/C (second compound 1 µM, first compound 10 µM) 11.2% | viability, T/C [7] 50% | viability, T/C [8] 53.7% | viability, T/C (second compound 3.16 µM, first compound 0.316 µM) 40.4% | viability, T/C (second compound 3.16 µM, first compound 1 µM) 27.1% | viability, T/C (second compound 3.16 µM, first compound 3.16 µM) 16.4% | viability, T/C (second compound 3.16 µM, first compound 10 µM) 10.7% | viability, T/C [9] 48.6% | viability, T/C [10] 50% | viability, T/C (second compound 10 µM, first compound 0.316 µM) 36.2% | viability, T/C (second compound 10 µM, first compound 1 µM) 28.2% | viability, T/C (second compound 10 µM, first compound 3.16 µM) 18.1% | viability, T/C (second compound 10 µM, first compound 10 µM) 11.6%
101 nM: IC50 (second compound 3.16 µM)
102 nM: IC50 (second compound 1 µM)
205 nM: IC50 (second compound 0.1 µM)
35 nM: IC50 (second compound 10 µM)
191 nM: IC50 (second compound 0.316 µM)

CC(C)CC(NC(=O)C(Cc1ccccc1)NC(=O)c1cnccn1)B(O)O (stereo not given) + NC1CC1c1ccc(-c2cccc(O)c2)cc1
active: viability, T/C (second compound 0.1 µM, first compound 0.001 µM) 1.11% | viability, T/C (second compound 0.1 µM, first compound 0.00316 µM) 0.47% | viability, T/C (second compound 0.1 µM, first compound 0.01 µM) 0.39% | viability, T/C [1] 0.14% | viability, T/C [2] 0.17% | viability, T/C (second compound 0.316 µM, first compound 0.001 µM) 1.91% | viability, T/C (second compound 0.316 µM, first compound 0.00316 µM) 0.24% | viability, T/C (second compound 0.316 µM, first compound 0.01 µM) 0.18% | viability, T/C [3] 0.18% | viability, T/C [4] 0.17% | viability, T/C (second compound 1 µM, first compound 0.001 µM) 1.68% | viability, T/C (second compound 1 µM, first compound 0.00316 µM) 0.21% | viability, T/C (second compound 1 µM, first compound 0.01 µM) 0.19% | viability, T/C [5] 0.22% | viability, T/C [6] 0.17% | viability, T/C (second compound 3.16 µM, first compound 0.001 µM) 0.61% | viability, T/C (second compound 3.16 µM, first compound 0.00316 µM) 0.17% | viability, T/C (second compound 3.16 µM, first compound 0.01 µM) 0.14% | viability, T/C [7] 0.46% | viability, T/C [8] 0.31% | viability, T/C (second compound 10 µM, first compound 0.001 µM) 0.8% | viability, T/C (second compound 10 µM, first compound 0.00316 µM) 0.29% | viability, T/C (second compound 10 µM, first compound 0.01 µM) 0.54% | viability, T/C [9] 0.45% | viability, T/C [10] 0.25%
< 0.316 nM: IC50 (second compound 0.1 µM) | IC50 (second compound 0.316 µM) | IC50 (second compound 1 µM) | IC50 (second compound 3.16 µM) | IC50 (second compound 10 µM)
inactive: viability, T/C (second compound 0.1 µM, first compound 0.000316 µM) 21.2% | viability, T/C (second compound 0.316 µM, first compound 0.000316 µM) 18.8% | viability, T/C (second compound 1 µM, first compound 0.000316 µM) 16.9% | viability, T/C (second compound 3.16 µM, first compound 0.000316 µM) 15.4% | viability, T/C (second compound 10 µM, first compound 0.000316 µM) 12.3%
